Assay results published in patent US7652047B2, “Phenylamino isothiazole carboxamidines as MEK inhibitors” (Ardea Biosciences, Inc., priority 2005, dated 2010).
Read-outs that look alike come from different tables or passages of the source.

Molecular target: T1, MEK1^CA (human GST-MEK1, constitutively active, Ser218Asp and Ser222Asp) (Homo sapiens, UniProt Q02750, S218D/S222D)
T1 construct: GST; made in house; host or cells: Escherichia coli
Assay: MEK1 enzymatic activity assay (MEK1^CA / ERK2 / MBP, [γ-33P]ATP incorporation)
Format: biochemical
In short: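 Cascade assay: 25 µl reactions with 0.002 nmol E. coli-expressed GST-MEK1 S218D/S222D, 0.02 nmol His-tagged mouse ERK2, 0.25 nmol MBP, 0.25 nmol unlabeled ATP and 0.1 µCi [γ-33P]ATP. Compound preincubated 30 min at ambient temperature with MEK1/ERK2; stopped with TCA, 33P-labelled protein filter-captured and scintillation-counted.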

[1] = Table 1, compounds of formula I, read-out: Avg IC50
[2] = Table 2, Ar1-A contains an amido or indolo group, read-out: IC 50

T1 sequence (Q02750 whole entry S218D/S222D): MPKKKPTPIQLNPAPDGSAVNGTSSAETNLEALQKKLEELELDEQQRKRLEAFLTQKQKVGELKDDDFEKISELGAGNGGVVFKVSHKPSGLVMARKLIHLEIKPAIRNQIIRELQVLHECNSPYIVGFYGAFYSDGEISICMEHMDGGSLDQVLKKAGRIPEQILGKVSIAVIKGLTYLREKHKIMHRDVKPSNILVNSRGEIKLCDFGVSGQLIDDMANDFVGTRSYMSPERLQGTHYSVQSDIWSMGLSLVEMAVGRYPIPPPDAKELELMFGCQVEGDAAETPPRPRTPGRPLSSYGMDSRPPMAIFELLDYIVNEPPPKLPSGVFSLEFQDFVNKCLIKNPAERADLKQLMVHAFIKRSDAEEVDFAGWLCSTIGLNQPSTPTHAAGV

CCNC(=N)c1c(O)nsc1Nc1ccc(Oc2ccccc2)cc1 [compound 199] was tested, and the IC50 [1] was 1 to 100 nM.
For Cc1cc(Nc2snc(O)c2C(=N)NC(C)C)ccc1Oc1ccc(C(F)(F)F)cc1 [compound 389], the IC50 [1] was over 500 nM.
Compound N=C(N[C@H](CO)CC1CCCCC1)c1c(O)nsc1Nc1ccc(Oc2ccccc2)cc1 [compound 168] has an IC50 [1] of over 500 nM.
In the case of CC(C)NC(=N)c1c(O)nsc1Nc1ccc(Oc2cc(Cl)cc(Cl)c2)cc1 [compound 248], the IC50 [1] is reported as 1 to 100 nM.
CC(C)C[C@H](CO)NC(=N)c1c(O)nsc1Nc1ccc(Oc2ccccc2)cc1 [compound 163] gave an IC50 [1] of 100 to 500 nM.
Compound N=C(NCC1CCCCC1)c1c(O)nsc1Nc1ccc(Sc2ccccc2)cc1 [compound 100] has an IC50 [1] of 1 to 100 nM.
In the case of Cn1sc(Nc2ccc(Oc3ccccc3)cc2)c(C(=N)NC2CCCC2)c1=O [Cpd 24], the IC50 [1] is reported as over 500 nM.
CC(NC(=N)c1c(O)nsc1Nc1ccc(Oc2ccccc2)cc1)c1ccc(F)cc1 (stereo not drawn) [compound 29] showed an IC50 [1] of 100 to 500 nM.
COC(=O)c1ccccc1Oc1ccc(Nc2snc(O)c2C(=N)NC(C)C)cc1 [compound 487] showed an IC50 [1] of 1 to 100 nM.
CC(CO)NC(=N)c1c(O)nsc1Nc1ccc(Oc2ccccc2F)c(F)c1 (stereo not drawn) [compound 303] gave an IC50 [1] of 1 to 100 nM.
CC(C)NC(=N)c1c(O)nsc1Nc1ccc(Oc2cncnc2)cc1 [compound 169] showed an IC50 [1] of 100 to 500 nM.
CN(O)C(=N)c1c(O)nsc1Nc1ccc(Oc2ccccc2)cc1 [compound 139] gave an IC50 [1] of 100 to 500 nM.
With CC(C)NC(=N)c1c(O)nsc1Nc1ccc(Oc2cccc(F)c2)c(F)c1 [compound 363] the IC50 [1] was over 500 nM.
For Cc1ccc(Cl)cc1Oc1ccc(Nc2snc(O)c2C(=N)NC(C)C)cc1 [compound 311], the IC50 [1] was 100 to 500 nM.
For CC(C)NC(=N)c1c(O)nsc1Nc1ccc(Oc2cccc(Cl)c2F)cc1 [compound 366], the IC50 [1] was 1 to 100 nM.
With N=C(NCc1ccccn1)c1c(O)nsc1Nc1ccc(Oc2cc(F)cc(F)c2)cc1 [compound 415] the IC50 [1] was 1 to 100 nM.
N=C(NO)c1c(O)nsc1Nc1ccc(Oc2ccccc2)cc1 [compound 130] gave an IC50 [1] of 1 to 100 nM.
Work on CC(CO)NC(=N)c1c(O)nsc1Nc1ccc(Oc2ccccc2Br)c(Cl)c1 (stereo not drawn) [compound 280] yielded an IC50 [1] of 1 to 100 nM.
CC(C)NC(=N)c1c(O)nsc1Nc1ccc(Oc2ccccc2)nc1 [compound 257] was tested, and the IC50 [1] was over 500 nM.
N=C(NCC(O)CO)c1c(O)nsc1Nc1ccc(Br)cc1 (stereo not drawn) [compound 55] was tested, and the IC50 [1] was 100 to 500 nM.
Cc1cccc(Oc2ccc(Nc3snc(O)c3C(=N)NC(C)C)cc2)c1C [compound 345] gave an IC50 [1] of 1 to 100 nM.
Work on CC(C)NC(=N)c1c(O)nsc1Nc1ccc(Oc2ccc(Br)c3ccccc23)cc1 [compound 339] yielded an IC50 [1] of 1 to 100 nM.
With Cc1ccc(Nc2snc(O)c2C(=N)NCCN2CCOCC2)cc1 [Cpd 4] the IC50 [1] was 100 to 500 nM.
N=C(NCC(O)CO)c1c(O)nsc1Nc1cccc(Cl)c1 (stereo not drawn) [compound 75] showed an IC50 [1] of 100 to 500 nM.
In the case of N=C(NCCO)c1c(O)nsc1Nc1ccc(C(=O)N2CCc3ccccc32)cc1 [E-13], the IC50 [2] is reported as over 1000 nM.
CC(C)NC(=N)c1c(O)nsc1Nc1ccc(Oc2cc(C(F)(F)F)cc(C(F)(F)F)c2)cc1 [compound 331] showed an IC50 [1] of 1 to 100 nM.
Work on CCC[C@H]1CC[C@H](c2ccc(Nc3s[nH]c(=O)c3C(N)=NCC(O)CO)cc2)CC1 (stereo partly drawn) [compound 63] yielded an IC50 [1] of 100 to 500 nM.
CC(C)NC(=N)c1c(O)nsc1Nc1ccc(Oc2ccc(Cl)cc2)c(Cl)c1 [compound 361] was tested, and the IC50 [1] was 100 to 500 nM.
Compound N=C(NCC1CCCCC1)c1c(O)nsc1Nc1cccc(Oc2ccccc2)c1 [compound 83] has an IC50 [1] of 100 to 500 nM.
CC(C)NC(=N)c1c(O)nsc1Nc1ccc(Oc2ccc(Br)cc2)c(F)c1 [compound 330] gave an IC50 [1] of 1 to 100 nM.
N=C(NCCCCO)c1c(O)nsc1Nc1ccc(Oc2ccc(Cl)cc2)cc1 [compound 158] gave an IC50 [1] of 100 to 500 nM.
Work on Cc1cc(Oc2cccc(F)c2F)ccc1Nc1snc(O)c1C(=N)NC(C)CO (stereo not drawn) [compound 464] yielded an IC50 [1] of 1 to 100 nM.
For N=C(NC1CCC1)c1c(O)nsc1Nc1ccc(Oc2ccccc2)cc1 [Cpd 16], the IC50 [1] was 1 to 100 nM.
Work on COCC(C)NC(=N)c1c(O)nsc1Nc1ccc(Oc2cc(F)cc(F)c2)cc1C (stereo not drawn) [compound 467] yielded an IC50 [1] of 1 to 100 nM.
In the case of CC(CO)NC(=N)c1c(O)nsc1Nc1ccc(Oc2cccc(C(F)(F)F)c2)nc1 (stereo not drawn) [compound 433], the IC50 [1] is reported as 1 to 100 nM.
Compound Cc1ccc(Nc2snc(O)c2C(=N)N2CCc3ccccc3C2)cc1 [Cpd 8] has an IC50 [1] of over 500 nM.
Work on CC(CO)NC(=N)c1c(O)nsc1Nc1ccc(C(=O)Nc2ccccc2)cc1 (stereo not drawn) [E-5] yielded an IC50 [2] of over 1000 nM.
Compound CC(C)NC(=N)c1c(O)nsc1Nc1ccc(Sc2ccccc2)cc1 [compound 255] has an IC50 [1] of 1 to 100 nM.
N#CNC(=N)c1c(O)nsc1Nc1ccc(Oc2ccccc2)cc1 [compound 162] gave an IC50 [1] of over 500 nM.
In the case of CCCC1CCC(c2ccc(Nc3snc(O)c3C(=N)NCC3CCCCC3)cc2)CC1 (stereo not drawn) [compound 58], the IC50 [1] is reported as over 500 nM.
Compound CC(CO)NC(=N)c1c(O)nsc1Nc1ccc(/N=N/c2ccccc2)cc1 (stereo not drawn) [compound 219] has an IC50 [1] of 1 to 100 nM.
In the case of N=C(NCC1CCCCC1)c1c(O)nsc1Nc1ccc(OCc2ccccc2)cc1 [compound 61], the IC50 [1] is reported as 100 to 500 nM.
In the case of N=C(NC1CC1)c1c(O)nsc1Nc1ccc(Oc2cc(F)cc(F)c2)cc1 [compound 416], the IC50 [1] is reported as 100 to 500 nM.
CC(C)NC(=N)c1c(O)nsc1Nc1ccc(Oc2cc(F)ccc2F)cc1 [compound 349] was tested, and the IC50 [1] was 1 to 100 nM.
CC(CO)NC(=N)c1c(O)nsc1Nc1cc(Cl)cc(Cl)c1 (stereo not drawn) [compound 233] showed an IC50 [1] of 100 to 500 nM.
For CC(CO)NC(=N)c1c(O)nsc1Nc1ccc(-c2nc3ccccc3[nH]2)cc1 (stereo not drawn) [compound 509], the IC50 [1] was over 500 nM.
N=C(NCCO)c1c(O)nsc1Nc1ccc(Oc2ccc(Cl)cc2)cc1 [compound 192] was tested, and the IC50 [1] was 100 to 500 nM.
CC(C)NC(=N)c1c(O)nsc1Nc1ccc(Oc2cc(F)ccc2Cl)cc1 [compound 308] was tested, and the IC50 [1] was 100 to 500 nM.
N=C(NC1CCCCC1)c1c(O)nsc1Nc1ccc(Oc2ccccc2)cc1 [Cpd 11] was tested, and the IC50 [1] was 1 to 100 nM.
For CC(CO)NC(=N)c1c(O)nsc1Nc1ccc(Oc2cc(C(F)(F)F)cc(C(F)(F)F)c2)cc1 (stereo not drawn) [compound 332], the IC50 [1] was 100 to 500 nM.
Work on CNC(=N)c1c(O)nsc1Nc1ccc(Oc2ccccc2)c(F)c1 [compound 309] yielded an IC50 [1] of over 500 nM.
Work on Cc1cccc(Oc2ccc(Nc3snc(O)c3C(=N)NC(C)CO)cc2)c1C (stereo not drawn) [compound 346] yielded an IC50 [1] of 1 to 100 nM.
CC(C)NC(=N)c1c(O)nsc1Nc1ccc([C@H]2CC[C@H](OC(=O)C(C)C)CC2)cc1 [compound 197] showed an IC50 [1] of 100 to 500 nM.
Compound CC(C)C(=O)O[C@H]1CC[C@H](c2ccc(Nc3snc(O)c3C(=N)NCC(O)CO)cc2)CC1 (stereo partly drawn) [compound 195] has an IC50 [1] of over 500 nM.
In the case of CC(C)NC(=N)c1c(O)nsc1Nc1ccc(Oc2ccc(F)cc2)cc1 [compound 205], the IC50 [1] is reported as 100 to 500 nM.
In the case of Cc1cccc(Nc2snc(O)c2C(=N)NCC2CCCCC2)c1 [compound 81], the IC50 [1] is reported as over 500 nM.
For N=C(NCC1CCCO1)c1c(O)nsc1Nc1ccc(Oc2ccccc2)cc1 (stereo not drawn) [Cpd 25], the IC50 [1] was 1 to 100 nM.
In the case of N=C(NCCN1CCNCC1)c1c(O)nsc1Nc1ccc(Oc2ccc(Cl)cc2Cl)cc1 [compound 428], the IC50 [1] is reported as 100 to 500 nM.
With Cc1cccc(Oc2ccc(Nc3snc(O)c3C(=N)NC(C)C)cc2)c1 [compound 291] the IC50 [1] was 1 to 100 nM.
For CCC[C@H]1CC[C@H](c2ccc(Nc3snc(O)c3C(=N)NC[C@@H](O)CO)cc2)CC1 [compound 193], the IC50 [1] was over 500 nM.
Compound CC(CO)NC(=N)c1c(O)nsc1Nc1ccc(C(=O)N2CCc3ccccc32)cc1 (stereo not drawn) [E-16] has an IC50 [2] of 1 to 200 nM.
In the case of Cc1ccc(Nc2snc(O)c2C(=N)NN2CCOCC2)cc1 [Cpd 5], the IC50 [1] is reported as 100 to 500 nM.
Work on CCC[C@H]1CC[C@H](c2ccc(Nc3snc(O)c3C(=N)NC(C)C)cc2)CC1 [compound 160] yielded an IC50 [1] of 100 to 500 nM.
CC(CO)NC(=N)c1c(O)nsc1Nc1ccc(C(=O)Nc2ccccc2)cc1 (stereo not drawn) [drawing 812] showed an IC50 (Table 3, benzamides of formula X, read-out: IC 50) of 1 to 100 nM.
CNC(=N)c1c(O)nsc1Nc1ccc(C)cc1 [Cpd 1] showed an IC50 [1] of 100 to 500 nM.
In the case of CC[C@@H](CO)NC(=N)c1c(O)nsc1Nc1ccc(Oc2cccc(C(F)(F)F)c2)cc1C [compound 506], the IC50 [1] is reported as 100 to 500 nM.
N=C(NCC1CCCCC1)c1c(O)nsc1Nc1cccc(Cl)c1Cl [compound 96] gave an IC50 [1] of over 500 nM.
CC(C)NC(=N)c1c(O)nsc1Nc1ccc(-n2cccn2)cc1 [compound 314] showed an IC50 [1] of over 500 nM.
In the case of CC(C)NC(=N)c1c(O)nsc1Nc1ccc2c(c1)Cc1ccccc1-2 [compound 227], the IC50 [1] is reported as over 500 nM.
For CC(C)c1ccc(Nc2snc(O)c2C(N)=NCC2CCCCC2)cc1 [compound 80], the IC50 [1] was over 500 nM.
For COc1ccc(-c2ccccc2)cc1Nc1snc(O)c1C(=N)NCC1CCCCC1 [compound 62], the IC50 [1] was over 500 nM.
CC(CO)NC(=N)c1c(O)nsc1Nc1ccc(Oc2ccc(F)cc2Cl)cc1C(F)(F)F (stereo not drawn) [compound 408] gave an IC50 [1] of 1 to 100 nM.
For CC(CO)NC(=N)c1c(O)nsc1Nc1ccc(Oc2ccc(Cl)cc2)c(Cl)c1 (stereo not drawn) [compound 359], the IC50 [1] was 100 to 500 nM.
Compound CC1(C)OCC(CNC(=N)c2c(O)nsc2Nc2ccc(Oc3ccccc3)cc2)O1 (stereo not drawn) [compound 47] has an IC50 [1] of 1 to 100 nM.
CC(C)NC(=N)c1c(O)nsc1Nc1ccc(Oc2ccccc2)c(Cl)c1 [compound 286] showed an IC50 [1] of 1 to 100 nM.
N=C(NC1CCCC1)c1c(O)nsc1Nc1ccc(Oc2ccccc2)cc1 [Cpd 12] showed an IC50 [1] of 1 to 100 nM.
Work on N=C(N)c1c(O)nsc1Nc1ccc(C(=O)N2CCc3cc(Br)ccc32)cc1 [E-20] yielded an IC50 [2] of 1 to 200 nM.
Work on CC(CO)NC(=N)c1c(O)nsc1Nc1ccc(/C=C/c2ccccc2)cc1 (stereo not drawn) [compound 240] yielded an IC50 [1] of 100 to 500 nM.
With N=C(NCCN1CCCCC1)c1c(O)nsc1Nc1ccc(Oc2ccccc2)cc1 [compound 53] the IC50 [1] was 100 to 500 nM.
Compound CNC(=N)c1c(O)nsc1Nc1ccc(Oc2ccc(Cl)cc2Cl)cc1 [compound 231] has an IC50 [1] of 100 to 500 nM.
Compound CC(CO)/N=C(\N)c1c(O)nsc1Nc1ccc(Oc2ccccc2)cc1 (stereo not drawn) [compound 154] has an IC50 [1] of 1 to 100 nM.
CC(C)NC(=N)c1c(O)nsc1Nc1ccc(Oc2cc(C(F)(F)F)ccc2Cl)cc1 [compound 294] was tested, and the IC50 [1] was 100 to 500 nM.
Cc1cc(Oc2ccc(F)c(F)c2)ccc1Nc1snc(O)c1C(=N)NC(C)C [compound 459] was tested, and the IC50 [1] was 1 to 100 nM.
Compound CC(CO)NC(=N)c1c(O)nsc1Nc1ccc(Oc2ccc(F)cc2Cl)c(F)c1 (stereo not drawn) [compound 370] has an IC50 [1] of 1 to 100 nM.
